From ChEMBL document CHEMBL1129188, “Structure activity relationships of tetrahydrocannabinol analogues on human cannabinoid receptors” (Bioorg Med Chem Lett, 1996)

How the values were obtained:
Cannabinoid receptor 1 [1] = biological target: T1, Cannabinoid receptor 1 (Homo sapiens, UniProt P21554); test: Binding affinity against human cannabinoid receptor by using radioligand ([3H]CP-55940) assay.
[2] = biological target: Cannabinoid receptor (Homo sapiens) (UniProt P34972+P21554); test: Ratio of binding affinity of hCB1 to hCB2 was reported; format: protein assay
Sequence of Cannabinoid receptor (Homo sapiens) (P21554 whole entry, looked up): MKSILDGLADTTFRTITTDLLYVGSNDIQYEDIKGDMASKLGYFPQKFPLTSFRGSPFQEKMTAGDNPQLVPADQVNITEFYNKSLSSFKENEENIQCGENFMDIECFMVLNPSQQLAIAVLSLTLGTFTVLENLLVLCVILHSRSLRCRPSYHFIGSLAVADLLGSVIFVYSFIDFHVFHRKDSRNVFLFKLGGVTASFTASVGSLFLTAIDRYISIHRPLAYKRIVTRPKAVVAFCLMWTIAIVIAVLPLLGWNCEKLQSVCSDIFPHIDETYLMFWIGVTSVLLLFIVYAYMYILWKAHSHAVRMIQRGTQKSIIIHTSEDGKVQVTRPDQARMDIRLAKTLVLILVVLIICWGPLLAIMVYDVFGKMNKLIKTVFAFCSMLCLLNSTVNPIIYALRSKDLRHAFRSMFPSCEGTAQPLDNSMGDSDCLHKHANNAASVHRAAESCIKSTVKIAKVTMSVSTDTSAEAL
Sequence of Cannabinoid receptor (Homo sapiens) (P34972 whole entry, looked up): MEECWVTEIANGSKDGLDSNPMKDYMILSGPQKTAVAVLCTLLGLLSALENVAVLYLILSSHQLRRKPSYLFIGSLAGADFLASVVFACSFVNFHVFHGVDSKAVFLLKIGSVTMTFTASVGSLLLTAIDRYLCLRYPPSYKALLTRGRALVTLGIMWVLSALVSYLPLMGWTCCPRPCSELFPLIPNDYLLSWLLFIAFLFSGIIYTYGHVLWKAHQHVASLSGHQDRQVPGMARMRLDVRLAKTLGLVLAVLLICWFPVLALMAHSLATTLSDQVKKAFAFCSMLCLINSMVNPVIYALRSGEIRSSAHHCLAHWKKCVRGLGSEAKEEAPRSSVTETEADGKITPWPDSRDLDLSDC

Cannabinoid receptor 2 = Cannabinoid receptor 2 (Homo sapiens, UniProt P34972); test: Binding affinity against human Cannabinoid receptor 2 by using radioligand ([3H]CP-55940) assay.
Sequence of Cannabinoid receptor 2 (P34972 whole entry): as the sequence (P34972 whole entry, looked up) above

Cannabinoid receptor 1 [3] = biological target: T1, Cannabinoid receptor 1; test: Compound was evaluated for binding affinity against human cannabinoid receptor by using radioligand ([3H]CP-55940) assay; first determination
Cannabinoid receptor 1 [4] = biological target: T1, Cannabinoid receptor 1; test: Compound was evaluated for binding affinity against human cannabinoid receptor by using radioligand ([3H]CP-55940) assay; second determination

T1 sequence (P21554 whole entry): as the sequence (P21554 whole entry, looked up) above

## CCCCCCC(C)(C)c1cc(O)c2c(c1)OC(C)(C)[C@@H]1CCC(=O)C[C@@H]21 [NABILONE]
Cannabinoid receptor 1 [1]
  Ki: 2.19 nM
[2]
  Ratio: 1.2
Cannabinoid receptor 2
  Ki: 1.84 nM

## CCCCCCC(C)(C)c1cc(O)c2c(c1)OC(C)(C)[C@H]1CC=C(C)C[C@H]21
Cannabinoid receptor 1 [1]
  Ki: 38.8 nM
[2]
  Ratio: 1.3
Cannabinoid receptor 2
  Ki: 28.8 nM

## CCCCCCC(C)(C)c1cc(O)c(-c2cc(C)cc(C)c2)c(O)c1
Cannabinoid receptor 1 [1]
  Ki: 79.1 nM
[2]
  Ratio: 40
Cannabinoid receptor 2
  Ki: 2 nM

## CCCCCCC(C)(C)c1cc(O)c([C@@H]2C=C(C)C3C[C@H]2C3(C)C)c(O)c1
Cannabinoid receptor 1 [1]
  Ki: 350 nM
[2]
  Ratio: 9
Cannabinoid receptor 2
  Ki: 41.2 nM

## CCCCCCC(C)(C)c1ccc2c(c1)OC(C)(C)[C@@H]1CC=C(C)C[C@@H]21
Cannabinoid receptor 1 [1]
  Ki: 250 nM
[2]
  Ratio: 12
Cannabinoid receptor 2
  Ki: 20.8 nM

## CCCCCCC(C)(C)c1cc(OC)c2c(c1)OC(C)(C)[C@@H]1CCC(=O)C[C@@H]21
Cannabinoid receptor 1 [1]
  Ki: 621 nM
[2]
  Ratio: 4.7
Cannabinoid receptor 2
  Ki: 132 nM

## CCCCCCC(C)(C)c1cc(O)c2c(c1)OC(C)(C)[C@@H]1CC=C(C)C[C@@H]21
Cannabinoid receptor 1 [1]
  Ki: 0.83 nM
[2]
  Ratio: 1.7
Cannabinoid receptor 2
  Ki: 0.49 nM

## C=C1CC[C@@H]2[C@@H](C1)c1c(OC)cc(C(C)(C)CCCCCC)cc1OC2(C)C
Cannabinoid receptor 1 [1]
  Ki: > 20000 nM
[2]
  Ratio: > 1000
Cannabinoid receptor 2
  Ki: 19.4 nM

## CCCCCCC(C)(C)c1cc(O)c2c(c1)OC(C)(C)[C@@H]1CC=C(C=O)C[C@@H]21
Cannabinoid receptor 1 [1]
  Ki: 2.24 nM
[2]
  Ratio: 0.9
Cannabinoid receptor 2
  Ki: 2.61 nM

## CCCCCCC(C)(C)c1cc(OC)c(-c2cc(C)cc(C)c2)c(OC)c1
Cannabinoid receptor 1 [1]
  Ki: > 20000 nM
[2]
  Ratio: > 46
Cannabinoid receptor 2
  Ki: 433 nM

## CCCCCCC(C)(C)c1ccc(-c2cc(C)cc(C)c2)cc1
Cannabinoid receptor 1 [1]
  Ki: > 30000 nM
[2]
  Ratio: > 14
Cannabinoid receptor 2
  Ki: 2140 nM

## CCCCCCC(C)(C)c1cc(O)c2c(c1)OC(C)(C)[C@H]1CC=C(C=O)C[C@H]21
Cannabinoid receptor 1 [1]
  Ki: 97 nM
[2]
  Ratio: 0.8
Cannabinoid receptor 2
  Ki: 119 nM

## CCCCCCC(C)(C)c1ccc(-c2cc(C)cc(C)c2)c(O)c1
Cannabinoid receptor 1 [1]
  Ki: 12.5 nM
[2]
  Ratio: 3
Cannabinoid receptor 2
  Ki: 4.14 nM

## CCCCCCC(C)(C)c1cc2c(c(OP(=O)(OCC)OCC)c1)[C@@H]1CC(C)=CC[C@H]1C(C)(C)O2
Cannabinoid receptor 1 [3]
  Ki: > 20000 nM
Cannabinoid receptor 1 [4]
  Ki: > 20000 nM
[2]
  Ratio: > 45
Cannabinoid receptor 2
  Ki: 442 nM

## C=C1CC[C@@H]2[C@@H](C1)c1c(O)cc(C(C)(C)CCCCCC)cc1OC2(C)C
Cannabinoid receptor 1 [1]
  Ki: 1.82 nM
[2]
  Ratio: 3.1
Cannabinoid receptor 2
  Ki: 0.58 nM

## CCCCCCC(C)(C)c1cc(OC)c2c(c1)OC(C)(C)[C@@H]1CC=C(C)C[C@@H]21
Cannabinoid receptor 1 [1]
  Ki: 15800 nM
[2]
  Ratio: 793
Cannabinoid receptor 2
  Ki: 20 nM
